# Source: patent publication US9851358B2, “Methods and pharmaceutical compositions for preventing or reducing metastatic dissemination” (INSERM (Institut National de la Sante et de la Recherche …, priority 2014, dated 2017)
# “Also recorded” adds a separate entry of the source.
# Key:
# MDA-MB-231 cells [1] = assay: Membrane fluidity by EPR (S parameter), MDA-MB-231; type: cell-based, human; conditions: MDA-MB-231, pretreatment with non-cytotoxic dose
# Experimental: (§1) Membrane fluidity was determined by a spin-labeling method using EPR, as previously described^27. Briefly, plasma membranes of living cells were labeled by incubating cells for 15 min at 37° C. with 12-doxyl stearic acid (36 μg/mL), a fatty acid with a stable nitroxide radical ring at the C-12 position. Cells were then washed twice with PBS to remove excess 12-doxyl stearic acid and EPR spectra of the labeled samples were acquired at ambient temperature on a Bruker Elexsys EPR spectrometer operating at 3509.25 G center field, 20 mW microwave power, 9.86 GHz microwave frequency, 1.77 G modulation amplitude, and 100 kHz modulation frequency. Fluidity of the spin-labeled membranes was quantified by calculating the S parameter. An increase in the S parameter reflects a decrease in membrane fluidity, and vice versa.
# MDA-MB-231 cells [2] = assay: Boyden chamber cell migration, MDA-MB-231; type: cell-based, human; conditions: MDA-MB-231, pretreatment with non-cytotoxic dose, cl-CD95L
# Experimental: (§2) Boyden chambers contained membranes with a pore size of 8 μm (Millipore, Molsheim, France). After hydration of the membranes, mesenchymal cells (10^5 cells per chamber) or epithelial cells (3×10^5 cells per chamber) were added to the top chamber in low serum (1%)-containing medium. The bottom chamber was filled with low serum (1%)-containing medium in the presence or absence of cl-CD95L (100 ng/mL). Cells were cultured for 24 h at 37° C. To quantify migration, cells were mechanically removed from the top side of the membrane using a cotton-tipped swab, and migrating cells from the reverse side were fixed with methanol and stained with Giemsa. For each experiment, five representative pictures were taken for each insert, then cells were lyzed and absorbance at 560 nm correlated to the amount of Giemsa stain was measured.
# lung cancer cells = conditions: via activation of protein phosphatase 2A; cited from earlier work
# [3] = test system: mesenchymal breast cancer cells; assay: Cytotoxicity of exogenous C16:0 ceramide; type: cell-based, human; conditions: 1 μM
# [4] = test system: mesenchymal breast cancer cells; assay: Membrane fluidity by EPR, mesenchymal breast cancer cells; type: cell-based, human; conditions: for CD95-mediated increase in membrane fluidization: 1 μM pre-incubation 60 min, then cl-CD95L 100 ng/mL 30 min
# Experimental: FIG. 1. Treatment of mesenchymal breast cancer cells with a non-toxic amount of exogenous C16:0 ceramide reduces plasma membrane fluidity and prevents basal and CD95-mediated cell migration. A. The indicated cells were pre-incubated with or without a non-cytotoxic dose (1 μM) of C16:0 ceramide (C16-Cer) for 60 min, and were then incubated with or without cl-CD95L (100 ng/mL) for 30 min. Membrane fluidity was assessed by EPR. Values are means±SEM of four independent experiments (*, p<0.05; ns, not significant). B. Indicated cells were pretreated with or without C16:0 ceramide ([…]) for 60 min and were then incubated with or without cl-CD95L (100 ng/mL) for 24 h. Cell migration was assessed by the Boyden chamber assay. Bars=70 μm. Giemsa-stained cells that migrated to the lower side of the membrane were lysed and absorbance at 560 nm was recorded. Values represent the means and SEM of three independent experiments (*p<0.05). Membrane fluidity was determined by a spin-labeling method using EPR, as previously described^27. Briefly, plasma membranes of living cells were labeled by incubating cells for 15 min at 37° C. with 12-doxyl stearic acid (36 μg/mL), a fatty acid with a stable nitroxide radical ring at the C-12 position. Cells were then washed twice with PBS to remove excess 12-doxyl stearic acid and EPR spectra of the labeled samples were acquired at ambient temperature on a Bruker Elexsys EPR spectrometer operating at 3509.25 G center field, 20 mW microwave power, 9.86 GHz microwave frequency, 1.77 G modulation amplitude, and 100 kHz modulation frequency. Fluidity of the spin-labeled membranes was quantified by calculating the S parameter. An increase in the S parameter reflects a decrease in membrane fluidity, and vice versa.
# [5] = test system: mesenchymal breast cancer cells; assay: Boyden chamber cell migration, mesenchymal breast cancer cells; type: cell-based, human; conditions: non-cytotoxic concentration; for basal migration: Boyden chamber 24 h; for CD95-mediated migration: cl-CD95L 100 ng/mL 24 h, Boyden chamber
# Experimental: FIG. 1. Treatment of mesenchymal breast cancer cells with a non-toxic amount of exogenous C16:0 ceramide reduces plasma membrane fluidity and prevents basal and CD95-mediated cell migration. A. The indicated cells were pre-incubated with or without a non-cytotoxic dose (1 μM) of C16:0 ceramide (C16-Cer) for 60 min, and were then incubated with or without cl-CD95L (100 ng/mL) for 30 min. Membrane fluidity was assessed by EPR. Values are means±SEM of four independent experiments (*, p<0.05; ns, not significant). B. Indicated cells were pretreated with or without C16:0 ceramide ([…]) for 60 min and were then incubated with or without cl-CD95L (100 ng/mL) for 24 h. Cell migration was assessed by the Boyden chamber assay. Bars=70 μm. Giemsa-stained cells that migrated to the lower side of the membrane were lysed and absorbance at 560 nm was recorded. Values represent the means and SEM of three independent experiments (*p<0.05).
# as §2
# [6] = test system: CD95-mediated PI3K signaling pathway; assay: Akt serine 473 phosphorylation (CD95-mediated PI3K signaling); type: cell-based
# Experimental: Cells were lyzed for 30 min at 4° C. in lysis buffer (25 mM HEPES pH 7.4, 1% (v/v) Triton X-100, 150 mM NaCl, and 2 mM EGTA supplemented with a mixture of protease inhibitors). Protein concentration was determined by the bicinchoninic acid method (Pierce, Rockford, Ill., USA) according to the manufacturer's protocol. Proteins were resolved by 8, 10, or 12% SDS-PAGE and transferred to a nitrocellulose membrane (GE Healthcare, Buckinghamshire, UK). The membrane was blocked for 15 min with TBST (50 mM Tris, 160 mM NaCl, and 0.05% (v/v) Tween 20, pH 7.4) containing 5% (w/v) dried skimmed milk (TBSTM), and was then incubated overnight at 4° C. with the primary antibody diluted in TBSTM. The membrane was washed with TBST and was then incubated with peroxidase-labeled anti-mouse IgG1 or IgG2a (CliniSciences, Nanterre, France) for 45 min. Proteins were visualized using the enhanced chemiluminescence substrate kit (ECL RevelBlOt®, Ozyme, Saint Quentin en Yvelines, France).
# [7] = test system: epithelial cell line MCF7; assay: Boyden chamber cell migration, MCF7; type: cell-based, human; conditions: MCF7, non-cytotoxic concentration
# Experimental: as §2
# [8] = test system: epithelial cell line MCF7; assay: Membrane fluidity by EPR, MCF7; type: cell-based, human; conditions: MCF7, non-cytotoxic concentration, 48 hours
# Experimental: as §1
# CerS = conditions: cited from earlier work
# NMuMG cells = conditions: cited from earlier work
compound,measurement,setting,value
CCCCCCCCC1CC1CCCCCCCC(=O)OCCOCCOC (centres unmarked) [A2C],basal membrane fluidity,MDA-MB-231 cells [1],significantly enhanced
same,CD95-mediated increase in plasma membrane fluidity,MDA-MB-231 cells [1]; then cl-CD95L,significantly enhanced
same,CD95-mediated migration,MDA-MB-231 cells [2],stimulated
CCCCCCCCCCCCC/C=C/[C@@H](O)[C@H](CO)NC(C)=O [C2-ceramide],migration of lung cancer cells in response to nicotine,lung cancer cells,inhibit
"CCCCCCCCCCCCC/C=C/[C@@H](O)[C@H](CO)NC(=O)CCCCCCCCCCCCCCC [C16-ceramide, N-palmitoyl-D-sphingosine]",cytotoxicity,[3],non-cytotoxic
same,CD95-mediated increase in membrane fluidization,[4],inhibited
same,CD95-mediated increase in membrane fluidization,[4]; listed as C16:0 ceramide,completely inhibited
same,basal S parameter,"[4]; non-cytotoxic concentration (1 μM), increase in S = decrease in fluidity",slightly increased
same,plasma membrane fluidity,[4]; non-toxic amount of exogenous C16:0 ceramide,reduces
same,basal migration,[5],impaired
same,basal migration,[5]; listed as C16:0 ceramide,prevents
same,CD95-mediated migration,[5],impaired; also recorded: inhibited
same,CD95-mediated migration,[5]; listed as C16:0 ceramide,prevents
same,CD95-mediated PI3K signaling pathway (phosphorylation at serine 473 of Akt),[6],did not affect
"CCCC[C@@H](C)[C@@H](OC(=O)C[C@@H](CC(=O)O)C(=O)O)[C@H](C[C@@H](C)C[C@H](O)CCCC[C@@H](O)C[C@H](O)[C@H](C)N)OC(=O)C[C@@H](CC(=O)O)C(=O)O [FB1, Fumonisin B1]",CD95-mediated cell migration,[7],enhanced
same,basal cell migration,[7],enhanced
same,CD95-induced membrane fluidity,[8],"slightly, but significantly, increased"
same,basal membrane fluidity,[8],"slightly, but significantly, increased"
same,CerS activity,CerS,selectively inhibits
gangliotetraosylceramide [Gg4],reversal of TGF-β-induced EMT,NMuMG cells,does
